Experimental data: patent US11578130B2, “Regulatable chimeric antigen receptor” (Novartis AG, priority 2013, dated 2023)

Experiments:
[1] = system: B/Brisbane/60/2008; assay: Clinical trial: hemagglutination inhibition titers and seroconversion, vaccine strain B; format: in vivo, human
Method: The trial was observer-blind because the placebo in the RAD001 0.5 mg daily and 20 mg weekly cohorts differed slightly from the RAD001 tablets in those cohorts. […] The treatment duration for all cohorts was 6 weeks during which time subjects underwent safety evaluations in the clinic every 2 weeks. After subjects had been dosed for 4 weeks, RAD001 steady state levels were measured pre-dose and at one hour post dose. After completing the 6 week course of study drug, subjects were given a 2 week drug free break to reverse any possible RAD001-induced immunosuppression, and then were given a 2012 seasonal influenza vaccination (Agrippal®, Novartis Vaccines and Diagnostics, Siena, Italy) containing the strains H1N1 A/California/07/2009, H3N2 A/Victoria/210/2009, B/Brisbane/60/2008. Four weeks after influenza vaccination, subjects had serum collected for influenza titer measurements. Antibody titers to the 3 influenza vaccine strains as well as to 2 heterologous strains (A/H1N1 strain A/New Jersey/8/76 and A/H3N2 strain A/Victoria/361/11) were measured by standard hemagglutination inhibition assay (Kendal, A P et al. (1982) Concepts and procedures for laboratory-based influenza surveillance. Atlanta: Centers for Disease Control and Prevention B17-B35).
The ability of RAD001 to improve immune function in elderly volunteers was evaluated by measuring the serologic response to the 2012 seasonal influenza vaccine. The hemagglutination inhibition (HI) geometric mean titers (GMT) to each of the 3 influenza vaccine strains at baseline and 4 weeks after influenza vaccination are provided in Table 22. The primary analysis variable was the HI GMT ratio (4 weeks post vaccination/baseline). […] This endpoint was chosen because a 1.2-fold increase in the influenza GMT ratio induced by the MF-59 vaccine adjuvant was associated with a decrease in influenza illness (Iob, A et al. (2005) Epidemiol Infect 133:687-693).
Rates of seroconversion 4 weeks after influenza vaccination were also evaluated. Seroconversion was defined as the change from a negative pre-vaccination titer (i.e., HI titer <1:10) to post-vaccination HI titer ≥1:40 or at least 4-fold increase from a non-negative (≥1:10) pre-vaccination HI titer.

[2] = system: A/H3N2 strain A/Victoria/361/11; assay: Clinical trial: HI titers and seroconversion, heterologous A/H3N2 strain; format: in vivo, human
[3] = system: A/H1N1/California/07/2009; assay: Clinical trial: serum IgG and IgM specific for A/H1N1/California/07/2009; format: in vivo, human; details: RAD001 versus placebo treated cohorts
Method: Levels of IgG and IgM specific for the A/H1N1/California/07/2009 were measured in serum samples taken before and 4 weeks after influenza vaccination as described previously (Spensieri, F. et al. (2013) Proc. Natl. Acad. Sci. USA 110:14330-14335). Results were expressed as fluorescence intensity.

[4] = system: Jurkat cells with NFAT-LUC reporter (JNL); assay: Activation of RCAR half switches (intracellular FKBP/FRB) by RAD001, NFAT luciferase; format: cell-based; details: RCAR half switches with CD27, CD28, ICOS, OX40 or 41BB costimulatory domain; RAD001 50 nM
Method: Jurkat cells with NFAT-LUC reporter (JNL) were grown to the density of 0.5×10^6/ml in Jurkat cell growth media with puromycin at 0.5 μg/ml. For each transfection 2.5×10^6 cells were spin down at 100 g for 10 minutes. Two μg of DNA per construct were used per transfection. Amaxa Nucleofector solution V and supplement I was mixed and 100 μl was added into the tube with DNA construct. The mixture was then added to the cells and transferred to the electroporation cuvette. Electroporation was done under setting X-001 using Amaxa Nucleofector II Device. 0.5 ml of growth media was added immediately after electroporation and the mixture were transferred into 2 ml growth media in one well of the 6-well plate.
After one hour, RAD001 compound was delivered at 50 nM when testing RCARs with different costimulatory signaling domains (FIGS. 44A and 44B), or various concentrations: 0 nM, 0.01 nM, 0.03 nM, 0.1 nM, 0.3 nM, 1 nM, 3 nM, and 10 nM (FIGS. 45A and 45B). Tissue culture plate was coated with 5 μg/ml of anti anti-CD19 antibody or isotype control for 2 hrs, blocked with the blocking buffer (DPBS with 5% serum) for 1 hour. The transfected cells with or without RAD001 were resuspended and added to the target plate with 100 μl per well and incubated for 18 hrs. […] The samples were incubated for 5 min at 37° C. and then luminescence is measured using Envision plate reader.

With `CO[C@H]1C[C@@H]2CC[C@@H](C)[C@@](O)(O2)C(=O)C(=O)N2CCCC[C@H]2C(=O)O[C@H]([C@H](C)C[C@@H]2CC[C@@H](OCCO)[C@H](OC)C2)CC(=O)[C@H](C)/C=C(\C)[C@@H](O)[C@@H](OC)C(=O)[C@H](C)C[C@H](C)/C=C/C=C/C=C/1C` [RAD001, (1R,9S,12S,15R,16E,18R,19R,21R,23S,24E,26E,28E,30S,32S,35R)-1,18-dihydroxy-12-{(1R)-2-[(1S,3R,4R)-4-(2-hydroxyethoxy)-3-methoxycyclohexyl]-1-methylethyl}-19,30-dimethoxy-15,17,21,23,29,35-hexamethyl-11,36-dioxa-4-aza-tricyclo[30.3.1.04,9]hexatriaconta-16,24,26,28-tetraene-2,3,10,14,20-pentaone] the “HI GMT, B” value ([1]; Baseline (2 weeks prior to influenza vaccination), RAD001 0.5 mg daily, N = 50) was 44.2, the “HI GMT, B” value ([1]; Baseline (2 weeks prior to influenza vaccination), RAD001 5 mg weekly, N = 49) was 64.8 and the “Percent of subjects with seroconversion to influenza 4 weeks after vaccination, B” value (from here on “Percent of subjects with seroconversion”) ([1]; Intention to Treat Population, 0.5 mg, N = 48) was 27%. For the same molecule, the “Percent of subjects with seroconversion” value ([1]; Intention to Treat Population, 5 mg, N = 49) was 22%, the “Percent of subjects with seroconversion” value ([1]; Intention to Treat Population, 20 mg, N = 48) was 19% and the “GMT ratio (week 4 post vaccination/baseline), B” value ([1]; RAD001 0.5 mg daily, N = 50) was 2.5. The “GMT ratio (week 4 post vaccination/baseline), B” value ([1]; RAD001 5 mg weekly, N = 49) was 2.2, the “GMT ratio (week 4 post vaccination/baseline), B” value ([1]; RAD001 20 mg weekly, N = 49) was 2.1 and the “Percent of subjects with seroconversion” value ([1]; Subjects with Baseline Titers <=40, 0.5 mg, * p-value < 0.05 versus placebo) was 40* Percent. The “Percent of subjects with seroconversion” value ([1]; Subjects with Baseline Titers <=40, 5 mg) was 33%, the “Percent of subjects with seroconversion” value ([1]; Subjects with Baseline Titers <=40, 20 mg) was 28% and the “HI GMT, B” value ([1]; Week 4 after influenza vaccination, RAD001 0.5 mg daily, N = 50) was 98.4. For the same molecule, the “HI GMT, B” value ([1]; Week 4 after influenza vaccination, RAD001 5 mg weekly, N = 49) was 117.3, the “HI GMT, B” value ([1]; Week 4 after influenza vaccination, RAD001 20 mg weekly, N = 49) was 99.2 and the “Percentage of subjects who seroconvert to heterologous strain 4 weeks after seasonal influenza vaccination, A/H3N2 strain: A/Victoria/361/11” value ([2]; RAD001 0.5 mg daily) was 38%. The “Percentage of subjects who seroconvert to heterologous strain 4 weeks after seasonal influenza vaccination, A/H3N2 strain: A/Victoria/361/11” value ([2]; RAD001 5 mg weekly, * p-value < 0.05 versus placebo) was 39%*, the “Percentage of subjects who seroconvert to heterologous strain 4 weeks after seasonal influenza vaccination, A/H3N2 strain: A/Victoria/361/11” value ([2]; RAD001 20 mg weekly, * p-value < 0.05 versus placebo) was 40%* and the “increase in the HI GMT ratios for the heterologous strain” value ([2]; RAD001 as compared to placebo cohorts) was “higher”. For the same molecule, the “H3N2 seroconversion rate, heterologous strain” value ([2]; pooled RAD001 cohorts, versus 20% placebo (p=0.007)) was 39%, the “post-vaccination anti-influenza IgM and IgG levels” value [3] was “did not differ” and the “target-dependent NFAT activity” value [4] was “all able to activate the target-dependent NFAT activity”.
